In brackets after ≈: the same amount, converted by molar mass. Read-outs that look alike come from different tables or passages of the source.
Legend:
Assay type in all cases: cell-based
[1] = system: SaR1: Meticillin-Resistant Staphylococcus aureus without Associated Resistance; experiment: Antibiogram, MIC by the VITEK 2 system; settings: SaR1; for CA-SFM Interpretation: Cc CA-SFM 2011; for CLSI Interpretation: Cc CLSI 2011; for EUCAST Interpretation: Cc EUCAST 2011; for Results: from MIC; for MIC: Staphylococcus aureus, read-out: MIC
Procedure: (§1) The bacterial and antibiogramidentification is carried out by the VITEK 2 system (bioMérieux)

[2] = system: SaR4: Meticillin-Resistant Staphylococcus aureus; experiment: Antibiogram, MIC by the VITEK 2 system; settings: SaR4; for MIC: Staphylococcus aureus, read-out: MIC
Procedure: (§2) The bacterial and antibiogramidentification is carried out by the VITEK 2 system (bioMérieux) and by the disk diffusion technique

[3] = system: EcR1: Penicillinase-Producing Escherichia coli without Associated Resistance; experiment: Antibiogram, MIC by the VITEK 2 system; settings: for MIC: Escherichia coli; for CA-SFM Interpretation: EcR1, MIC against Cc CA-SFM 2011; for CLSI Interpretation: EcR1, MIC against Cc CLSI 2011; for EUCAST Interpretation: EcR1, MIC against Cc EUCAST 2011; for Results: EcR1, interpretation of the MIC, Table A1
Procedure: (§3) 5.1 EcR1: Penicillinase-Producing Escherichia coli without Associated Resistance The bacterial and antibiogramidentification is carried out by the VITEK 2 system (bioMérieux) and by the disk diffusion technique.

[4] = system: EcR2: Cephalosporinase-Hyperproducing Strain of Escherichia coli; experiment: Antibiogram, MIC by the VITEK 1 system; settings: for MIC: Escherichia coli; for Results: EcR2, Table B1; for CA-SFM Interpretation / CLSI Interpretation / EUCAST Interpretation: from MIC; for CA-SFM Interpretation: Cc CA-SFM 2011; for CLSI Interpretation: Cc CLSI 2011; for EUCAST Interpretation: Cc EUCAST 2011
Procedure: (§4) The bacterial and antibiogramidentification is carried out by the VITEK 1 system (bioMérieux) and by the disk diffusion technique

[5] = system: EcR1: Penicillinase-Producing Escherichia coli without Associated Resistance; experiment: Antibiogram by the disk diffusion technique; settings: for Diameter: EcR1, disk diffusion; for Diameter / Results: Table A1; for Results: EcR1, interpretation of the diameter against Dmin Dmax; for MIC mg/L (diameter in mm): EcR1, cells that print a diameter, Table A2; for CA-SFM Interpretation: EcR1, diameter against CA-SFM 2011 limits; for CLSI Interpretation: EcR1, diameter against CLSI 2011 limits; for EUCAST Interpretation: EcR1, diameter against EUCAST 2011 limits
Procedure: as §3

[6] = system: EcR3: ESBL-Producing Escherichia coli; experiment: Antibiogram by the disk diffusion technique; settings: for CA-SFM Interpretation: Cd CA-SFM 2011; for CLSI Interpretation: Cd CLSI 2011; for EUCAST Interpretation: Cd EUCAST 2011; for Diameter: Table C1; for Results: Table C1, against Dmin Dmax; for diameter in mm: Table C2
Procedure: The bacterial and antibiogramidentification is carried out by the VITEK 2 system (bioMerieux) and by the disk diffusion technique

[7] = system: PaR3: Pseudomonas aeruginosa; experiment: Antibiogram, MIC by the VITEK 2 system; settings: for CA-SFM Interpretation: Cc CA-SFM 2011; for CLSI Interpretation: Cc CLSI 2011; for EUCAST Interpretation: Cc EUCAST 2011
Procedure: as §1

[8] = system: PaR5: Pseudomonas aeruginosa; experiment: Antibiogram by the disk diffusion technique; settings: for Diameter / Results / CA-SFM Interpretation / CLSI Interpretation / EUCAST Interpretation: PaR5; for Diameter / Results: Table I1; for Results: against Dmin-Dmax; for diameter in mm: disk diffusion inhibition diameter, strain PaR5; for CA-SFM Interpretation / CLSI Interpretation / EUCAST Interpretation: disk diffusion; for CA-SFM Interpretation: versus critical diameter CA-SFM 2011; for CLSI Interpretation: versus critical diameter CLSI 2011; for EUCAST Interpretation: versus critical diameter EUCAST 2011, for ** antibiotics the disk load differs and the EUCAST interpretation is not applicable
Procedure: as §2

[9] = system: PaR2: Pseudomonas aeruginosa
Procedure: as §2

[10] = system: EcR2: Cephalosporinase-Hyperproducing Strain of Escherichia coli; experiment: Antibiogram by the disk diffusion technique
Procedure: as §4

[11] = system: SaR3: Meticillin-Resistant Staphylococcus aureus; experiment: Antibiogram by the disk diffusion technique
Procedure: as §2

[12] = EcR1, Table A2, read-out: MIC mg/L (diameter in mm)
[13] = EcR1, VITEK 2, Table A1, read-out: MIC
[14] = EcR2, VITEK 1, Table B1, read-out: MIC
[15] = EcR2, Table B2, MIC, read-out: MIC
[16] = Pseudomonas aeruginosa, Table H2, read-out: MIC

## Cc1onc(-c2ccccc2)c1C(=O)N[C@@H]1C(=O)N2[C@@H]1SC(C)(C)[C@@H]2C(=O)O [Oxacillin]
[1]
  CA-SFM Interpretation: Resistant
  CLSI Interpretation: Resistant
  EUCAST Interpretation: Resistant
[1]; Table D1
  Results: Resistant
  MIC: ≥ 8 mg/L
[1]; Table D2
  MIC mg/L: ≧8 mg/L
[2]; Table F1, MIC
  Results: Resistant
[2]; from MIC, Cc CA-SFM 2011
  CA-SFM Interpretation: Resistant
[2]; from MIC, Cc CLSI 2011
  CLSI Interpretation: Resistant
[2]; from MIC, Cc EUCAST 2011
  EUCAST Interpretation: Resistant
[2]; Table F1
  MIC: ≥ 8 mg/L
[2]; Table F2, MIC
  MIC: ≥ 8 mg/L

## O=C1CN(/N=C/c2ccc([N+](=O)[O-])o2)C(=O)N1 [Nitrofurantoin]
[3]; [12]
  MIC: ≤ 16 mg/L
[3]; [13]
  MIC: ≤ 16 mg/L
[4]; [14]
  MIC: ≤ 25 mg/L
[4]; [15]
  MIC: ≤ 25 mg/L
[1]; Table D2
  MIC mg/L: ≦16 mg/L
[1]; Table D1
  MIC: ≤ 16 mg/L
[2]; Table F1
  MIC: ≤ 25 mg/L
[2]; Table F2, MIC
  MIC: ≤ 25 mg/L

## CN(C)[C@@H]1C(O)=C(C(N)=O)C(=O)[C@@]2(O)C(O)=C3C(=O)c4c(O)cccc4[C@@](C)(O)[C@H]3C[C@@H]12 [Tetracycline]
[2]; Table F1
  MIC: ≤ 1 mg/L
[2]; Table F2, MIC
  MIC: ≤ 1 mg/L

## CC1(C)S[C@@H]2[C@H](NC(=O)[C@H](C(=O)O)c3ccsc3)C(=O)N2[C@H]1C(=O)O [Ticarcillin]
[3]
  CA-SFM Interpretation: Resistant
  CLSI Interpretation: Resistant
  EUCAST Interpretation: Resistant
  Results: Resistant
[3]; [12]
  MIC: ≥ 128 mg/L
[3]; [13]
  MIC: ≥ 128 mg/L
[5]
  Diameter: 6 mm
  Results: Resistant
[4]
  Results: Intermediate
[4]; EcR2
  CA-SFM Interpretation: Resistant
  CLSI Interpretation: Resistant
  EUCAST Interpretation: Resistant
[4]; [14]
  MIC: 32 mg/L (≈ 83.2 µM)
[4]; [15]
  MIC: 32 mg/L (≈ 83.2 µM)
[6]
  CA-SFM Interpretation: Resistant
  CLSI Interpretation: Resistant
  EUCAST Interpretation: Resistant
  Diameter: 6 mm
  Results: Resistant
  diameter in mm: 6 mm
[7]
  CA-SFM Interpretation: Resistant
  CLSI Interpretation: Resistant
  EUCAST Interpretation: Resistant
[7]; [16]
  MIC: ≥ 128 mg/L
[7]; Table H1
  MIC: ≧128
  Results: Resistant
[8]
  Diameter: 32 mm
  Results: Susceptible
  diameter in mm: 32 mm
  CA-SFM Interpretation: Susceptible
  CLSI Interpretation: Susceptible
  EUCAST Interpretation: Susceptible
[9]; Cd CA-SFM 2011
  CA-SFM Interpretation: Resistant
[9]; Cd CLSI 2011
  CLSI Interpretation: Resistant
[9]; Cd EUCAST 2011
  EUCAST Interpretation: Resistant
[9]; Table G1
  Diameter: 10 mm
[9]; Table G1, against Dmin-Dmax
  Results: Resistant
[9]; Table G2
  diameter in mm: 10 mm

## CC(=O)OCC1=C(C(=O)O)N2C(=O)[C@@H](NC(=O)Cc3cccs3)[C@H]2SC1 [C1G, Cefalotine]
[3]
  CA-SFM Interpretation: Susceptible
  CLSI Interpretation: Susceptible
  EUCAST Interpretation: Susceptible
  Results: Susceptible
[3]; [12]
  MIC: 4 mg/L (≈ 10.1 µM)
[3]; [13]
  MIC: 4 mg/L (≈ 10.1 µM)
[5]
  Diameter: 17 mm
  Results: Intermediate
[4]
  Results: Resistant
[4]; EcR2
  CA-SFM Interpretation: Resistant
  CLSI Interpretation: Resistant
  EUCAST Interpretation: Resistant
[4]; [14]
  MIC: ≥ 64 mg/L
[4]; [15]
  MIC: ≥ 64 mg/L
[6]
  CA-SFM Interpretation: Resistant
  CLSI Interpretation: Resistant
  Diameter: 6 mm
  Results: Resistant
  diameter in mm: 6 mm

## C[C@H]1[C@H](NC(=O)/C(=N\OC(C)(C)C(=O)O)c2csc(N)n2)C(=O)N1S(=O)(=O)O [Aztreonam]
[5]
  MIC mg/L (diameter in mm): 28 mm
  CA-SFM Interpretation: Susceptible
  CLSI Interpretation: Susceptible
  EUCAST Interpretation: Susceptible
  Diameter: 28 mm
  Results: Susceptible

## CCn1cc(C(=O)O)c(=O)c2ccc(C)nc21 [Nalidixic acid]
[3]
  CA-SFM Interpretation: Susceptible
  CLSI Interpretation: Susceptible
  Results: Susceptible
[3]; read-out: MIC mg/L
  MIC: ≤ 2 mg/L
[3]; read-out: MIC mg/L (diameter in mm)
  MIC: ≤ 2 mg/L
[4]
  Results: Resistant
  MIC: ≥ 32 mg/L
[4]; EcR2
  CA-SFM Interpretation: Resistant
  CLSI Interpretation: Resistant
[4]; read-out: MIC mg/L
  MIC: ≥ 32 mg/L

## C[C@@H](O)[C@H]1C(=O)N2C(C(=O)O)=C(S[C@@H]3CN[C@H](C(=O)N(C)C)C3)[C@H](C)[C@H]12 [Meropenem]
[7]
  CA-SFM Interpretation: Resistant
  CLSI Interpretation: Resistant
  EUCAST Interpretation: Resistant
[7]; [16]
  MIC: ≥ 16 mg/L
[7]; Table H1
  MIC: ≧16
  Results: Resistant
[8]
  Diameter: 34 mm
  Results: Susceptible
  diameter in mm: 34 mm
  CA-SFM Interpretation: Susceptible
  CLSI Interpretation: Susceptible
  EUCAST Interpretation: Susceptible

## O=C(O)c1cn(C2CC2)c2cc(N3CCNCC3)c(F)cc2c1=O [Ciprofloxacin]
[5]
  Results: Susceptible
[6]
  CA-SFM Interpretation: Susceptible
  Results: Susceptible

## CCn1cc(C(=O)O)c(=O)c2cc(F)c(N3CCNCC3)cc21 [Norofloxacin]
[8]
  Diameter: 17 mm
  Results: Resistant

## CO/N=C(\C(=O)N[C@@H]1C(=O)N2C(C(=O)[O-])=C(C[N+]3(C)CCCC3)CS[C@H]12)c1csc(N)n1 [Cefepime]
[5]
  MIC mg/L (diameter in mm): 27 mm
  CA-SFM Interpretation: Susceptible
  CLSI Interpretation: Susceptible
  EUCAST Interpretation: Susceptible
  Diameter: 27 mm
  Results: Susceptible

## CO[C@@]1(NC(=O)Cc2cccs2)C(=O)N2C(C(=O)O)=C(COC(N)=O)CS[C@@H]21 [Cefoxitin]
[3]
  CA-SFM Interpretation: Susceptible
  CLSI Interpretation: Susceptible
  Results: Susceptible
[3]; [12]
  MIC: ≤ 4 mg/L
[3]; [13]
  MIC: ≤ 4 mg/L
[5]
  Diameter: 24 mm
  Results: Susceptible
[10]; EcR2, disk diffusion, Table B1
  Diameter: 11
[10]; EcR2, rows that print a diameter, Table B1
  Results: Resistant
[10]; EcR2, Table B2, diameters
  Diameter: 11 mm
[10]; EcR2, from diameter, CA-SFM 2011
  CA-SFM Interpretation: Resistant
[10]; EcR2, from diameter, CLSI 2011
  CLSI Interpretation: Resistant
[10]; EcR2, from diameter, EUCAST 2011
  EUCAST Interpretation: Resistant
[6]
  CA-SFM Interpretation: Resistant
  CLSI Interpretation: Resistant
  EUCAST Interpretation: Resistant
  Results: Intermediate
  diameter in mm: 6 mm
[11]; Cd CA-SFM 2011
  CA-SFM Interpretation: Resistant
[11]; Cd CLSI 2011
  CLSI Interpretation: Resistant
[11]; Cd EUCAST 2011
  EUCAST Interpretation: Resistant
[11]; Table E2
  diameter in mm: 17 mm

## CCn1cc(C(=O)O)c(=O)c2cc(F)c(N3CCN(C)CC3)cc21 [Pefloxacin]
[5]
  Diameter: 26 mm
[4]
  Results: Resistant
[4]; EcR2
  CA-SFM Interpretation: Resistant
[4]; [14]
  MIC: ≥ 8 mg/L
[4]; [15]
  MIC: ≥ 8 mg/L
[6]
  CA-SFM Interpretation: Susceptible
  Diameter: 23 mm
  diameter in mm: 23 mm

## Quinupristin-dalfopristin
[1]
  CA-SFM Interpretation: Susceptible
  CLSI Interpretation: Susceptible
  EUCAST Interpretation: Susceptible
[1]; Table D1
  MIC mg/L: ≦0.25 mg/L
  Results: Susceptible
[1]; Table D2
  MIC mg/L: ≦0.25 mg/L

## CCn1cc(C(=O)O)c(=O)c2cc(F)c(N3CCNCC3)cc21 [Norfloxacin]
[3]
  CA-SFM Interpretation: Susceptible
  CLSI Interpretation: Susceptible
  EUCAST Interpretation: Susceptible
  Results: Susceptible
[3]; [12]
  MIC: ≤ 0.5 mg/L
[3]; [13]
  MIC: ≤ 0.5 mg/L
